Measured values from patent publication US20070270418A1, “Inhibitors of P38 and Methods of Using the Same” (priority 2003, published 2007).

What was measured:
Assay type in all cases: biochemical
[1] = target: T1, p38α (Homo sapiens, UniProt Q16539); assay: p38 MAP Kinase assay, ATF2 phosphorylation (ELISA); settings: 40 μM ATP
T1 construct: p38 MAP Kinases are recombinant human full-length proteins with an amino-terminal GST fusion; GST (N); purchased Upstate (Charlottesville, Va.); host or cells: E. coli
Summary of the method: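 ATF2 Thr69 phosphorylation was quantified by ELISA (HRP/TMB, 450 nm) after EDTA termination. Reactions: 6 ng GST-fused full-length human p38α, 15 min compound pre-incubation at room temperature, then 30 min at 37° C with 40 μM ATP and 1.25 μM GST-ATF2 (aa 19-96), pH 7.5 HEPES buffer.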

[2] = target: T2, ZAP-70 (Homo sapiens, UniProt P43403); assay: Broad selectivity panel, 32P incorporation; settings: 40 μM ATP, read-out: Percent inhibition ZAP-70; for inhibition at 0.1 µM: 0.1 μM compound; for inhibition at 1 µM: 1 μM compound
T2 construct: purchased Upstate (Charlottesville, Va.)
T2 sequence (P43403 1-619): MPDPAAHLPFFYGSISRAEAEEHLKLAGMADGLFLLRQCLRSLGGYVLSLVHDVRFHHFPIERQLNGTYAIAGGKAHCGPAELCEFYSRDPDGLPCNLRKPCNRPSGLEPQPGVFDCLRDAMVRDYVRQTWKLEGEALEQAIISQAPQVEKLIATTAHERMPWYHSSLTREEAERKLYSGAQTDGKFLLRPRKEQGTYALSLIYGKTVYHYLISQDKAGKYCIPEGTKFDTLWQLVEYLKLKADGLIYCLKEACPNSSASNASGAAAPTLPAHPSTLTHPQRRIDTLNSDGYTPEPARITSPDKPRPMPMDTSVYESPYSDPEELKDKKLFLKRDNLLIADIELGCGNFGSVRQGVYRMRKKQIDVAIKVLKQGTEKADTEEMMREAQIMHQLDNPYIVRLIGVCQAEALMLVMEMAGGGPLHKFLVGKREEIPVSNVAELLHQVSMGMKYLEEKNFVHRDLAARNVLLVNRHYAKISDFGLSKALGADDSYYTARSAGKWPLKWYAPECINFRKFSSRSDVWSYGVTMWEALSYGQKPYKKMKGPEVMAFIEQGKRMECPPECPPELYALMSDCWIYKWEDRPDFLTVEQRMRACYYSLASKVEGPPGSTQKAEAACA
Summary of the method: (§1)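 Percent inhibition is derived from the drop in 32P labelling of substrate when compound is present, against buffer-only controls. Each compound is run at 0.1 and 1 μM, ATP fixed at 40 μM, across 24 panel kinases.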

[3] = target: T3, CDK2/cyclinA (Homo sapiens, UniProt P24941); assay: Broad selectivity panel, 32P incorporation; settings: 40 μM ATP, read-out: Percent inhibition CDK2/cyclinA; for inhibition at 0.1 µM: 0.1 μM compound; for inhibition at 1 µM: 1 μM compound
T3 construct: purchased Upstate (Charlottesville, Va.)
Summary of the method: as §1

[4] = target: T4, Src^p60 (Homo sapiens, UniProt P12931); assay: Src^p60 peptide phosphorylation, time resolved fluorescence
T4 construct: purchased Upstate (Charlottesville, Va.)
Description: (§2) A selectivity panel is used to test the cross-reactivity of compounds of the invention with the β and γ isoforms of p38 MAP kinase, Src^p60 and JNK2α2. The p38β, p38γ, and JNK2α2 assays are described in Example 4. The Src^p60 assay measures the ability of compounds to inhibit Src^p60-catalyzed phosphorylation of a peptide substrate.
Compounds are serially diluted in DMSO and 1 μL of test compound at 25× final concentration is used. The vehicle control receives DMSO only. Test compounds are pre-incubated with 10 μL of water containing 5.3 units of Src^p60 enzyme (Upstate, Charlottesville, Va.) at room temperature for 15 minutes. […] The reactions are incubated for 1 hr at room temperature. Time resolved fluorescence is read at 665 and 615 nm using the Victor V program LANCE 615/665 on a Victor^2 V plate reader (Perkin Elmer Life Sciences).

[5] = target: T5, JNK2α2 (Homo sapiens, UniProt P45984); assay: Kinase selectivity, ATF2 phosphorylation ELISA
T5 construct: purchased Upstate (Charlottesville, Va.)
Description: (§3) All kinases and the substrate ATF2 are acquired from Upstate (Charlottesville, Va.). p38 MAP Kinases are recombinant human full-length proteins with an amino-terminal GST fusion, expressed in and purified from E. coli. ATF2 is a GST fusion protein containing amino acids 19-96 of human ATF2 expressed in E. coli. All proteins were aliquoted and stored at −80° C.
(§4) p38 MAP Kinase assays are performed using an assay buffer containing 25 mM HEPES, pH 7.5, 10 mM MgCl2, 2 mM DTT, 20 mM β-glycerophosphate, 0.1 mM Na3VO4, 40 μM ATP and 1.25 μM of ATF2, together with 6 ng of p38α protein, 12 ng p38β protein, 1.5 ng p38γ, or 0.4 ng JNK2α2. Compounds are serially diluted in DMSO and 2 μL of test compound at 25× final concentration is used. The vehicle control receives DMSO only. Test compounds are pre-incubated with 20 μl of enzyme in kinase buffer (25 mM HEPES, pH 7.5, 10 mM MgCl2, 2 mM DTT, 20 mM 3-glycerophosphate and 0.1 mM Na3VO4) at room temperature for 15 minutes. […] The reactions are incubated for 30 minutes at 37° C. and terminated by the addition of 18 μl of 200 mM EDTA. An ELISA method is used to measure the phosphorylation of ATF2 at Thr 69. High binding 96-well plates (Corning 3369) are coated with 50 μl of kinase reaction for 1 hour at 37° C. The coated plates are washed with 200 μl washing buffer (25 mM Tris HCl, pH 8.3, 192 mM glycine, 0.1% SDS and 0.05% Tween-20) three times. The plates are then washed three times with SuperBlock in TBS (Pierce, 37535). After blocking, plates are incubated with 50 μl of rabbit anti-phospho-ATF2 antibody (Cell Signaling, 9221 L, 1:500) for 30 minutes at 37° C. Plates are washed three times with washing buffer prior to incubation with 50 μl HRP-conjugated goat anti-rabbit antibody (Cell Signaling, 7074, 1:500) for 30 minutes at 37° C. Plates are then washed three times with washing buffer before incubation with 50 μl of Ultra TMB-ELISA (Pierce, 34028) for 8 minutes at room temperature. Finally, 50 μl of phosphoric acid (1 M) is added to stop reactions and plate absorbance is read at 450 nm on a SpectraMax 250 plate reader.
as §2

[6] = target: T6, p38β (Homo sapiens, UniProt Q15759); assay: Kinase selectivity, ATF2 phosphorylation ELISA
T6 construct: p38 MAP Kinases are recombinant human full-length proteins with an amino-terminal GST fusion; GST (N); purchased Upstate (Charlottesville, Va.); host or cells: E. coli
Description: as §3, §4, §2

T5 sequence (P45984 whole entry): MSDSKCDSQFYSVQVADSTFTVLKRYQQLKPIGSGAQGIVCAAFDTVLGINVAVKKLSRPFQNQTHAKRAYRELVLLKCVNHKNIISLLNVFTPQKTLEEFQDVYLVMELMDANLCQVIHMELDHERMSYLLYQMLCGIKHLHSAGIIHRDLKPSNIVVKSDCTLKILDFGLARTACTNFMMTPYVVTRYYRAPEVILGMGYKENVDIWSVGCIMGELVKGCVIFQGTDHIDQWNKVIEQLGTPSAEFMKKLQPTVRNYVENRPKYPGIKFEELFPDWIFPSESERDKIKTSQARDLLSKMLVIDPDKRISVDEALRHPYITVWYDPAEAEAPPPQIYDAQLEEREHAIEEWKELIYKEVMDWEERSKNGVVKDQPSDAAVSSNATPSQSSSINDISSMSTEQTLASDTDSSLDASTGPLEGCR
T1 sequence (Q16539 whole entry, the tested form may be a part): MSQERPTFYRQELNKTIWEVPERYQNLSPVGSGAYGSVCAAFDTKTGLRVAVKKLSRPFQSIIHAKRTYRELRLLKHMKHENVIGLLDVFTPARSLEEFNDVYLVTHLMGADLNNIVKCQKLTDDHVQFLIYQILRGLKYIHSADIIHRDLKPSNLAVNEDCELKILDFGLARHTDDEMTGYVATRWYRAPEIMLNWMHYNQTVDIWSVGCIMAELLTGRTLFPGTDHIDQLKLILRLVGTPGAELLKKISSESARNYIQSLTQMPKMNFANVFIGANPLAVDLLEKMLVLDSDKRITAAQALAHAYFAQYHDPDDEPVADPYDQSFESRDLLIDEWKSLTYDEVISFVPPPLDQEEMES
T4 sequence (P12931 whole entry): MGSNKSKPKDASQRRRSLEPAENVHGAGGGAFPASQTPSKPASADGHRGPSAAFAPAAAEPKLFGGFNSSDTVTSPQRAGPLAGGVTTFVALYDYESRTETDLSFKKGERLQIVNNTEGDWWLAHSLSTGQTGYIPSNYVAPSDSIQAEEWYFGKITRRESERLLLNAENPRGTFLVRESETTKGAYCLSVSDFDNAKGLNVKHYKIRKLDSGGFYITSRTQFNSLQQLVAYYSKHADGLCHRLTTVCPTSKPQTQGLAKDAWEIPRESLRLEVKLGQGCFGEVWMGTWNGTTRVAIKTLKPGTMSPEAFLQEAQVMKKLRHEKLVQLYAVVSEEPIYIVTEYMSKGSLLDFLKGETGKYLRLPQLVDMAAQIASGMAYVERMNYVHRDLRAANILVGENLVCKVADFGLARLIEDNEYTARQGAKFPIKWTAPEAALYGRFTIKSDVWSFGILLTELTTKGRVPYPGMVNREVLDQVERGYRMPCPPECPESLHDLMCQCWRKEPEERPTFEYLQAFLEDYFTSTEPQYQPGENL
T6 sequence (Q15759 whole entry, the tested form may be a part): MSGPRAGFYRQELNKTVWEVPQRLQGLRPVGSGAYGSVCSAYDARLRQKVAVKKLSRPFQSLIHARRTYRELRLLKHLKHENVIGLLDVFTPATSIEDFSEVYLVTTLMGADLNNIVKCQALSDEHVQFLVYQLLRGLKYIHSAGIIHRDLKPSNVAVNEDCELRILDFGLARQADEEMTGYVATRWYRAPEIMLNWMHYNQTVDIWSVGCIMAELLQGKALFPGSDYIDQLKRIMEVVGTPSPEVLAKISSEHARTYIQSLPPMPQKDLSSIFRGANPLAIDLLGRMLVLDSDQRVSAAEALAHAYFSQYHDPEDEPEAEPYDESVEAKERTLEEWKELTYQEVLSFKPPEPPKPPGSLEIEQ

Row | Compound | IC50 [1] [nM] | inhibition at 0.1 µM [2] [%] | inhibition at 1 µM [2] [%] | inhibition at 0.1 µM [3] [%] | inhibition at 1 µM [3] [%] | IC50 [4] [µM] | IC50 [5] [nM] | IC50 [6] [nM] | selectivity over p38β as compared to p38α [6] [fold]
1 | CS(=O)(=O)N1CCC(Nc2nccc(-c3c(-c4ccc(F)cc4)nc4occn34)n2)CC1 [CCLXXIX] | 0.71 | 13 | -1 | 24 | 65 | > 64 | 23.3 | 1.8 | –
2 | CC(=O)N1CCC(Nc2nccc(-c3c(-c4ccc(F)cc4)nc4occn34)n2)CC1 [CCLXXVIII] | 2.38 | -53 | 18 | 1 | 20 | – | – | 6.3 | –
3 | CN1[C@@H]2CC[C@H]1C[C@@H](Nc1nccc(-c3c(-c4ccc(F)cc4)nc4occn34)n1)C2 [CCLXXXI] | 4.91 | 12 | 30 | -2 | 5 | > 9.03 | 762 | 24.6 | –
4 | Fc1ccc(-c2nc3occn3c2-c2ccnc(NC3CCNCC3)n2)cc1 [CCLXXX] | 13.1 | -2 | 9 | 3 | 19 | – | – | 95.4 | –
5 | CN(C)CC(C)(C)CNc1nccc(-c2c(-c3ccc(F)cc3)nc3occn23)n1 [CXIX] | 17 | 13 | -9 | -1 | -1 | – | – | 288 | –
6 | Fc1ccc(-c2nc3occn3c2-c2ccnc(N[C@@H]3CN4CCC3CC4)n2)cc1 [LXXI] | 27.7 | -17 | 4 | 0 | 8 | 12.9 | 1590 | 114 | –
7 | Fc1ccc(-c2nc3occn3c2-c2ccnc(NC3CN4CCC3CC4)n2)cc1 (stereo not shown) [LXXXIV] | 15 | – | – | – | – | > 29.5 | 2260 | 1290 | –
8 | Fc1ccc(-c2nc3occn3c2-c2ccnc(N[C@H]3CN4CCC3CC4)n2)cc1 [LXXXVII] | 8.7 | -51 | -14 | 1 | 0 | 25.9 | 1040 | 150 | 17
